The results in this text go back to patent US20130108565A1, “TANNING ENHANCERS AND SELF-TANNING SUBSTANCES” (MERCK PATENT GESELLSCHAFT MIT BESCHRANKTER HAFTUNG, priority 2010, published 2013).

For assay [1], the system named is B16V mouse melanoma cells. Nature of the assay: B16 V mouse melanoma cell test: melanin concentration after alpha-MSH stimulation. The format is cell-based. As to conditions: for Relative melanin concentration (%): DMSO (0.1%) + α-MSH 10^-8 M, relative to blank DMSO + α-MSH = 100%. As for the experimental part:
Description of the performance of the B16 V mouse melanoma cell test:
B16V mouse melanoma cells (manufacturer: DSMZ; Article No.: ACC370) in RPMI medium (Invitrogen, Article No.: 31870), to which 10% of FBS (foetal bovine serum, Invitrogen, Article No: 10499044), 2 mM L-glutamine (Invitrogen, Article No: 25030) and 1 mM sodium pyruvate (Invitrogen, Article No: 11360) had additionally been added (modified RPMI medium), are transferred into a culture bottle and incubated at 37° C. and 5% CO2 for 72 h. The medium is separated off, and the cells are washed with 10 ml of D-PBS (Invitrogen, Article No. 14190) and subsequently filtered off with suction. 1 ml of HyQtase cell detachment solution (Hyclone, Article No. SV30030.01) is added to the cells. The bottle is swirled a number of times, and the HyQtase cell detachment solution is subsequently removed by suction. The cells are then incubated in the incubator at 37° C. and 5% CO2for 5 min. The cells are taken up in the modified RPMI medium (Invitrogen, Article No.: 31870), and the cell count is determined. To this end, the cells are stained with Tryptan Blue and counted in a Neubauer chamber. The cells are subsequently sown out again in the modified RPMI medium in a defined cell count of 80,000 cells per well (6-well clear plate, TCT, PS (Nunc)).
The plate is subsequently incubated at 37° C. and 5% CO2 for 24 h, the medium is then removed. 1980 μl of the isomaltulose dilution are subsequently added. For this substance dilution, the isomaltulose is dissolved in DMSO and subsequently filtered through a sterile filter (0.2 μm, Millipore, Article No. SLLG013SL). The solution is then diluted with the modified RPMI medium (in this case the FBS content in the RPMI medium is only 5%) in such a way that the isomaltulose concentration is 1 mM or 5 mM. 20 μl of an alpha-MSH solution in DMSO (alpha-melanocyte-stimulating hormone=alpha-MSH) (DMSO, Sigma, Article No.:D2650) are then added, so that the alpha-MSH concentration in the well is 10^−8 M. The plate is subsequently incubated again at 37° C. and 5% CO2 for 24 h. […]
After the final incubation period, the medium is removed by suction, and the cells are washed with 1000 μl of D-PBS (Invitrogen, Article No. 14190). […] The cell count is subsequently determined. To this end, the cells are stained with Tryptan Blue and counted in a Neubauer chamber. […] 200 μl are then pipetted as quadruple determination (per cup) into a 96-well plate (VWR, Article No. 4100636981), and the absorption at a wavelength of 405 nm is determined. […] The content of melanin can be determined in this way by means of a calibration line.
The other values were determined relative to the blank sample with dimethyl sulfoxide (DMSO) and α-MSH, whose measurement was set at 100%

Assay [2] deals with explants from the stomach tissue of a pale-skinned person. The assay can be described thus: Ex-vivo study: chromametric colour measurement (L, a, b) of skin explants. Also on record: species or system human; key to a / b: CIE L*a*b* colour coordinates (Minolta CR-300, D65). As to conditions: for L / a / b: n=3, listed as P2. As to the method: 12 explants from the stomach tissue of a pale-skinned person (type) having an average diameter of 10 mm are prepared (reference: […]-AB49). The explants are kept in a BEM medium (BIO-EC's explants medium) at 37° C. in a moist atmosphere comprising 5% of CO2. The following samples are tested: (in each case 3 explants), where the solutions of the corresponding substances used comprise 90% of water and 10% of ethanol. […] 2 μl of the respective sample are added to the explants and distributed for the first time (DO), 1 day later (D1), 2 days later (D2), 3 days later (D3) and 4 days later (D4). The colour of the explants is determined chromametrically. The measurements are carried out on addition (DO), on day 1 (D1), on day 5 (D5) and on day 11 (D11). The colour measurements are carried out using a Minolta CR-300 Chroma-meter, and the L, a and b values are read off correspondingly on the instrument. […] A colour area is present here which is viewed at a viewing angle of 2 degrees. This viewing angle is used as standard in the chromametric measurement. • Irradiation source D65, corresponding to daylight • Region of the measurement: 3 mm • Parameters used: L* a* b* The sample is placed on the bearing rail with the epidermis facing downwards. The irradiation is carried out from the underside through the area indicated (3 mm). In the colorimetric determinations <L a b>, the L value determines the contrast of the skin. If the L value drops, the skin appears darker.

Setting [3] is: D0 (on addition), single explant values.
[4] abbreviates: D1, 2 μl sample applied D0-D4, single explant values.
The mark [5] stands for this setting: D5, 2 μl sample applied D0-D4, single explant values.
The mark [6] stands for this setting: D11, 2 μl sample applied D0-D4, single explant values.
Where [7] appears, read: in comparison with the untreated sample.

“And” between values parts separate entries of the source, which are not always exact repeats. Identical values can stand only once.

With `OC[C@H]1O[C@H](OC[C@H]2OC(O)(CO)[C@@H](O)[C@@H]2O)[C@H](O)[C@@H](O)[C@@H]1O` (stereo partly drawn) [isomaltulose, α-D-glucopyranose-(1→6)-D-fructose (open, α- or (β-form) (isomaltulose)], the “Relative melanin concentration (%)” value in assay [1] (1 mM) amounted to 65.0%; in assay [1] (5 mM) it was 58.1%. Further, the melanin production entry in assay [1] (cell culture tests with B16V mouse melanoma cells) is “reduces melanin production”. In addition, the L is 62.89 and 62.96 and 61.62 in assay [2] (setting [3]); 63.09 and 64.04 and 62.97 in assay [2] (setting [4]); 63.79 and 62.89 and 63.61 in assay [2] (setting [5]); 65.69 and 59.72 and 60.71 in assay [2] (setting [6]). Also, the a in assay [2] (setting [3]) was 2.75 and 2.19 and 3.28; in assay [2] (setting [4]), 3.72 and 2.1 and 3.32; in assay [2] (setting [5]), 2.57 and 2.67 and 3.26; in assay [2] (setting [6]), 2.41 and 3.44 and 3.59. In addition, the b in assay [2] (setting [3]) is 15.88 and 18.71 and 18.43; in assay [2] (setting [4]), 16.05 and 17.73 and 17.92; in assay [2] (setting [5]), 14.33 and 17.15 and 16.3; in assay [2] (setting [6]), 12.35 and 11.35 and 11.57. In addition, the “skin darkness (L values)” value in assay [2] (setting [7]) is recorded as “darkening of the skin”. The “skin shade, red-brown shift (a value)” value in assay [2] (setting [7]) is given as “more natural skin shade”.

For `O=c1cc(CO)occ1O` [kojic acid, reference compound], the “Relative melanin concentration (%)” value in assay [1] (1 mM) is reported as 71.4%.
